From publication PMC10146250, “Study on the liver Drug’s dominant metabolic enzymes for six effective components of the Huang qi Liuyi decoction” (Frontiers in Pharmacology, 2023)

Key:
[1] = Metabolic conversion in the liver microsomal incubation system without inhibitor; details: for Metabolic conversion rate under different reaction times: 0, 15, 30, 45, 60, 90 min at 37°C; for Metabolic conversion rate at different protein concentrations: liver microsomal protein 0, 0.25, 0.5, 0.75, 1, 2 mg/mL, 60 min
Procedure: Before the experiment, the mice were fasted for 12 h, and were euthanized after blood was taken from the eye sockets. The liver was quickly removed and perfused with pre-cooled saline through the hepatic portal vein until the liver was earthy yellow, washed three times with 1.15% KCl solution, wiped dry with filter paper, and then weighed. The liver was then cut up, homogenized with three times the volume of ethylene diamine tetraacetic acid (EDTA) in an ice bath, and centrifuged at 4°C for 10 min at 3,000 g. The supernatant was filtered, and the filtrate was centrifuged at 4°C for 20 min at 12,000 g. The supernatant was then centrifuged at 4°C for 45 min at 100,000 g, and the precipitate was resuspended in a resuspension solution (EDTA homogenate containing 20% glycerol). The protein concentration of the microsomes was determined using the BCA protein concentration determination kit, and the microsomes were aliquoted and pre-stored at −20°C for 60 min and transferred to −80°C for storage.
The total volume of the reaction was kept at 200 μL. The in vitro incubation system comprised of 50 μL liver microsomes (1 mg/mL), 50 μL specific inhibitor solution, 20 μL nicotinamide adenine dinucleotide phosphate (NADPH, 1 mmol/L), and 80 μL standard solution (100 ng/mL). The solution containing liver microsomes, specific inhibitors, and the standard solution was pre-incubated for 5 min at 37°C. NADPH, pre-incubated for 5 min at 37°C, was added to commence the reaction, and the solution was incubated for 60 min at 37°C on a thermostatic oscillator. At the end of the reaction, […] of ice-cold methanol containing the IS (the final concentrations of digoxin and puerarin were 0.745 μg/mL and 1 μg/mL, respectively) was added to terminate the reaction. The samples were vortexed for 1 min and centrifuged for 10 min (15,000 r/min). The contents of six active components in the supernatant were determined by HPLC-MS-MS. All reactions were performed in triplicate.
The six-component mixed standard solutions were incubated with the liver microsomal sample of different protein concentrations (0, 0.25, 0.5, 0.75, 1, 2 mg/mL) for 60 min, each with six replicates. Subsequently, samples were prepared according to the methods described in Section 2.6. The residual contents of the six effective components in each group were determined by HPLC-MS/MS to calculate the metabolic conversion rate.
The mixed standard solution containing the six components was incubated with mouse liver microsomes at 37°C for different time (0, 15, 30, 45, 60, 90 min), each with six replicates. Subsequently, samples were prepared according to the methods described in Section 2.6. The residual contents of the six effective components in each group were determined by HPLC-MS/MS to calculate the metabolic conversion rate.
The standard solution of astragaloside IV, glycyrrhizic acid, calycosin-glucuronide, formononetin, calycosin-7-O-β-D-glucoside, and ononin was added to phosphate-buffered saline (PBS, pH 7.0) as desired for dilution to produce a series of mixed solutions (50, 100, 250, 500, 1,000 ng/mL). Each mixed solution sample was incubated with 1.0 mg/mL liver microsomes for 60 min. The residual contents of the six effective components were determined by HPLC-MS/MS to calculate the metabolic conversion rate.
Α-naphthoflavone, quinidine, clomethiazole, ticlopidine, ketoconazole, and fluconazole were selected as specific inhibitors of CYP1A2, CYP2D22, CYP2E1, CYP2C37, CYP3A11, and CYP2C11, respectively ([El-Sherbeni and El-Kadi, 2014]; [Xu et al., 2016]). Forty-eight mice were randomly divided into eight groups of six mice each. The eight groups comprised six different specific inhibitor groups, a negative control group and a control group. For different specific inhibitor groups, mouse liver microsomes were incubated with related CYP450 enzyme specific inhibitors and mixed standard solutions.

[2] = target: T1, CYP2E1 (Mus musculus, UniProt Q05421); experiment: Mouse liver microsomal incubation with clomethiazole, specific inhibitor of CYP2E1; format: in vitro ADME; details: mouse liver microsomes 1 mg/mL, 60 min, 37°C, component 100 ng/mL, vs negative control without inhibitor
T1 construct: from tissue; host or cells: liver microsomes of control (db/m) mice
Procedure: (§1) All reactions were performed in triplicate.

[3] = target: T2, CYP1A2 (Mus musculus, UniProt P00186); experiment: Mouse liver microsomal incubation with α-naphthoflavone, specific inhibitor of CYP1A2; format: in vitro ADME; details: mouse liver microsomes 1 mg/mL, 60 min, 37°C, component 100 ng/mL, vs negative control without inhibitor
T2 construct: from tissue; host or cells: liver microsomes of control (db/m) mice
T2 sequence (P00186 1-513): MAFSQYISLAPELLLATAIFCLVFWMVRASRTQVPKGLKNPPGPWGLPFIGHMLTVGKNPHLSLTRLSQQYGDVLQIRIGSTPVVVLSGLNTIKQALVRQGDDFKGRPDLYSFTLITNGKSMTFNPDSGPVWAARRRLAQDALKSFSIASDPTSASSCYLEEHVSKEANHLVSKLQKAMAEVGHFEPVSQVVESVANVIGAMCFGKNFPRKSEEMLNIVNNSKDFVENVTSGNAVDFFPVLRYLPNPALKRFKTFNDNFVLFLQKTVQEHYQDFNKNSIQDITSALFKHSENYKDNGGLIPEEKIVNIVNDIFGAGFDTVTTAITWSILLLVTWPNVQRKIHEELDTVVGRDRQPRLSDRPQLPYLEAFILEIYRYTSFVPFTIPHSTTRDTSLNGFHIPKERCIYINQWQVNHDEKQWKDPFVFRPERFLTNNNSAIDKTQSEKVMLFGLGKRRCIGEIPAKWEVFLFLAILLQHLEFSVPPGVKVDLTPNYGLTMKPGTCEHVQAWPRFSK
Procedure: as §1

[4] = parameters: method as in Wang et al., 2022c; details: oral administration of HQD, ref Wang et al., 2022c; cited from earlier work
[5] = tested on: CYP2C11; experiment: Mouse liver microsomal incubation with fluconazole, specific inhibitor of CYP2C11; format: in vitro ADME; details: mouse liver microsomes 1 mg/mL, 60 min, 37°C, component 100 ng/mL, vs negative control without inhibitor
Procedure: as §1

[6] = target: T3, CYP2C37 (Mus musculus, UniProt P56654); experiment: Mouse liver microsomal incubation with ticlopidine, specific inhibitor of CYP2C37; format: in vitro ADME; details: mouse liver microsomes 1 mg/mL, 60 min, 37°C, component 100 ng/mL, vs negative control without inhibitor
T3 construct: from tissue; host or cells: liver microsomes of control (db/m) mice
T3 sequence (P56654 21-490): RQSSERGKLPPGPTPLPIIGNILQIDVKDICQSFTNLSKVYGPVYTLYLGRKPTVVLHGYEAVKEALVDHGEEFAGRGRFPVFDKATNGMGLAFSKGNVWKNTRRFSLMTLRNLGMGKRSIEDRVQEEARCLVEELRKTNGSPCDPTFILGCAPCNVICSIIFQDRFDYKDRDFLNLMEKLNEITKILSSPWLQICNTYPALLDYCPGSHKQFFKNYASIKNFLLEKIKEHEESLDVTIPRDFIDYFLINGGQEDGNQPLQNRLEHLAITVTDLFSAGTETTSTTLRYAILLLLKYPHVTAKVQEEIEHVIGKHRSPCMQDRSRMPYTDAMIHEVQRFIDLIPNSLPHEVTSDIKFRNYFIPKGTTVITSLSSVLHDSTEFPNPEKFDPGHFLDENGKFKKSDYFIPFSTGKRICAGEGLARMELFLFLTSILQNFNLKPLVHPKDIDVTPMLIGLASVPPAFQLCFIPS
Procedure: as §1

[7] = tested on: liver CYP450 enzymes; experiment: Mouse liver microsomal incubation with the panel of specific CYP enzyme inhibitors; format: in vitro ADME; details: mouse liver microsomes 1 mg/mL, 60 min, 37°C, component 100 ng/mL; inhibitors of CYP1A2, CYP2D22, CYP2E1, CYP2C37, CYP3A11, CYP2C11
Procedure: as §1

[8] = tested on: CYP3A11; experiment: Mouse liver microsomal incubation with ketoconazole, specific inhibitor of CYP3A11; format: in vitro ADME; details: mouse liver microsomes 1 mg/mL, 60 min, 37°C, component 100 ng/mL, vs negative control without inhibitor
Procedure: as §1

T1 sequence (Q05421 whole entry): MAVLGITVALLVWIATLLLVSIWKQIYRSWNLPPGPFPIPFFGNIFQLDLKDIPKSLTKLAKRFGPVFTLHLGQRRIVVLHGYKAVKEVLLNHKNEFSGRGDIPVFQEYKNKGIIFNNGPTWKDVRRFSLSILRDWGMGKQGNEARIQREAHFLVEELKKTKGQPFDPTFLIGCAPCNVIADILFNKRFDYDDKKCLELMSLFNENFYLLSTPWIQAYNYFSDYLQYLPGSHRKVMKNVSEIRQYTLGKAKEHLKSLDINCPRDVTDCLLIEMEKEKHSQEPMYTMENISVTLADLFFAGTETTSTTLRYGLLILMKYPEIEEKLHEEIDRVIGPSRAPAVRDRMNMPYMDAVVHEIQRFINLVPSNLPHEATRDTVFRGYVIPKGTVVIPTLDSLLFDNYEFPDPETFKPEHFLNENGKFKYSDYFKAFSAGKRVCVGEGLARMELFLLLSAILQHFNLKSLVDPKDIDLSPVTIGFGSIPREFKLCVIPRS

| SMILES | Effect of clomethiazole (CYP2E1 inhibitor) on metabolism of the component (residual content) [2] | Effect of α-naphthoflavone (CYP1A2 inhibitor) on metabolism of the component (residual content) [3] | Effect of the specific CYP enzyme inhibitors on metabolism of the component [7] | Effect of ketoconazole (CYP3A11 inhibitor) on metabolism of the component (residual content) [8] | Metabolic conversion rate under different reaction times [1] | Metabolic conversion rate at different protein concentrations [1] | Absorption and elimination in mice with diabetic nephropathy [4] | Effect of fluconazole (CYP2C11 inhibitor) on metabolism of the component (residual content) [5] | Effect of ticlopidine (CYP2C37 inhibitor) on metabolism of the component (residual content) [6] |
| --- | --- | --- | --- | --- | --- | --- | --- | --- | --- |
| CC(C)(O)[C@@H]1CC[C@](C)([C@H]2[C@@H](O)C[C@@]3(C)[C@@H]4C[C@H](O[C@@H]5O[C@H](CO)[C@@H](O)[C@H](O)[C@H]5O)[C@H]5C(C)(C)[C@@H](O[C@@H]6OC[C@@H](O)[C@H](O)[C@H]6O)CC[C@@]56C[C@@]46CC[C@]23C)O1 [Astragaloside IV] |  |  |  |  | increased with time, however, saturated after 60 min | initially increased with the increase in protein concentration | greater absorption and delayed elimination | prevented the metabolism | prevented the metabolism |
| COc1ccc(-c2coc3cc(O)ccc3c2=O)cc1 [Formononetin] |  |  |  | prevented the metabolism | increased with time, however, saturated after 60 min | initially increased with the increase in protein concentration | greater absorption and delayed elimination | prevented the metabolism |  |
| COc1ccc(-c2coc3cc(O[C@@H]4O[C@H](CO)[C@@H](O)[C@H](O)[C@H]4O)ccc3c2=O)cc1 [Ononin] |  |  | not affected |  | increased with time, however, saturated after 60 min | initially increased with the increase in protein concentration | greater absorption and delayed elimination |  |  |

Second part, led by results:

| Effect of clomethiazole (CYP2E1 inhibitor) on metabolism of the component (residual content) [2] | Effect of α-naphthoflavone (CYP1A2 inhibitor) on metabolism of the component (residual content) [3] | Effect of the specific CYP enzyme inhibitors on metabolism of the component [7] | Effect of ketoconazole (CYP3A11 inhibitor) on metabolism of the component (residual content) [8] | SMILES | Metabolic conversion rate under different reaction times [1] | Metabolic conversion rate at different protein concentrations [1] | Absorption and elimination in mice with diabetic nephropathy [4] | Effect of fluconazole (CYP2C11 inhibitor) on metabolism of the component (residual content) [5] | Effect of ticlopidine (CYP2C37 inhibitor) on metabolism of the component (residual content) [6] |
| --- | --- | --- | --- | --- | --- | --- | --- | --- | --- |
| prevented the metabolism | prevented the metabolism |  |  | COc1ccc(-c2coc3cc(O)ccc3c2=O)cc1O | increased with time, however, saturated after 60 min | initially increased with the increase in protein concentration | greater absorption and delayed elimination |  |  |
|  |  | not affected |  | COc1ccc(-c2coc3cc(O[C@@H]4O[C@H](CO)[C@@H](O)[C@H](O)[C@H]4O)ccc3c2=O)cc1O [Calycosin-7-O-β-D-glucoside] | increased with time, however, saturated after 60 min | initially increased with the increase in protein concentration | greater absorption and delayed elimination |  |  |
|  |  |  | prevented the metabolism | CC1(C)[C@@H](O[C@H]2O[C@H](C(=O)O)[C@@H](O)[C@H](O)[C@H]2O[C@@H]2O[C@H](C(=O)O)[C@@H](O)[C@H](O)[C@H]2O)CC[C@]2(C)[C@H]3C(=O)C=C4[C@@H]5C[C@@](C)(C(=O)O)CC[C@]5(C)CC[C@@]4(C)[C@]3(C)CC[C@@H]12 [Glycyrrhizic acid] | increased with time, however, saturated after 60 min | initially increased with the increase in protein concentration | greater absorption and delayed elimination |  | prevented the metabolism |
